The species entered for test [1] is Homo sapiens. In words: Binding affinity to alpha-glucosidase (unknown origin) assessed as change in gibbs free energy at 298 K by Van't Hoff equation analysis.
The species entered for test [2] is Homo sapiens. The experiment in a line: Binding affinity to alpha-glucosidase (unknown origin) assessed as binding constant at 298 K.
The species entered for test [3] is Rattus norvegicus. In words: Inhibition of alpha-glucosidase in rat everted intestinal sleeves assessed as reduction in glucose concentration within intestinal sleeves at 0.173 mM measured for 5 to 90 mins. The test is classed as tissue-based. The conditions noted are these: Intestine, time min 5-90.
For test [4], the species on record is Homo sapiens. In words: Binding affinity to alpha-glucosidase (unknown origin) assessed as hydrogen bonding interactions by measuring change in entropy at 304 K by Van't Hoff equation analysis.
The nature of test [5]: Inhibition of alpha-glucosidase (unknown origin). Also noted: species or system Homo sapiens. The conditions noted are these: read-out: IC50.
The species entered for test [6] is Homo sapiens. The experiment in a line: Non-competitive inhibition of alpha-glucosidase (unknown origin) assessed as decrease in Vmax with constant Km at 0.0 to 2.5 uM using p-NPG as substrate by Lineweaver-Burk plot analysis. The settings on record: dose microM 0.0-2.5.
Test [7] in a line: Binding affinity to alpha-glcosidase (unknown origin) using p-NPG as substrate. On the set-up: species or system Homo sapiens.
The species entered for test [8] is Homo sapiens. The experiment in a line: Binding affinity to alpha-glucosidase (unknown origin) assessed as fluorescence quenching at 0.33 to 3.66 uM by fluorescence spectral analysis. The conditions noted are these: dose microM 0.33-3.66.
For test [9], the species on record is Homo sapiens. The experiment in a line: Binding affinity to alpha-glucosidase (unknown origin) assessed as Stern-Volmer quenching constant at 298 K.
Test [10] is filed under the species Homo sapiens. In words: Binding affinity to alpha-glucosidase (unknown origin) assessed as Stern-Volmer quenching constant at 304 K.
Test [11] is filed under the species Homo sapiens. In words: Binding affinity to alpha-glucosidase (unknown origin) assessed as Stern-Volmer quenching constant at 310 K.
For test [12], the species on record is Homo sapiens. In words: Binding affinity to alpha-glucosidase (unknown origin) assessed as binding constant at 304 K.
The species named for test [13] is Homo sapiens. The experiment in a line: Binding affinity to alpha-glucosidase (unknown origin) assessed as binding constant at 310 K.
Test [14] is filed under the species Homo sapiens. In words: Binding affinity to alpha-glucosidase (unknown origin) assessed as hydrophobic interactions by measuring change in enthalpy at 304 K by Van't Hoff equation analysis.
The species entered for test [15] is Homo sapiens. In words: Binding affinity to alpha-glucosidase (unknown origin) assessed as change in gibbs free energy at 304 K by Van't Hoff equation analysis.
The species entered for test [16] is Homo sapiens. The experiment in a line: Binding affinity to alpha-glucosidase (unknown origin) assessed as change in gibbs free energy at 310 K by Van't Hoff equation analysis.
Test [17] is filed under the species Mus musculus. In words: Hypoglycemic activity in Kunming mouse assessed as reduction in maltose-induced postprandial blood glucose level measured after 15 to 120 mins by maltose loading test. Type of test: functional, organism-based. The conditions noted are these: time min 15-120.
The species named for test [18] is Mus musculus. In words: Hypoglycemic activity in Kunming mouse assessed as reduction in maltose-induced blood glucose AUC (0 to 120 mins) by maltose loading test. The conditions noted are these: time min 0-120. Type of test: functional, organism-based.
The species named for test [19] is Rattus norvegicus. In words: Inhibition of alpha-glucosidase in rat everted intestinal sleeves assessed as reduction in glucose concentration outside of the intestinal sleeves at 0.173 mM measured after 5 to 90 mins. Type of test: tissue-based. The settings on record: Intestine, time min 5-90.
The species entered for test [20] is Homo sapiens. In words: Binding affinity to alpha-glucosidase (unknown origin) assessed as enzyme complexation with compound by measuring mean height of enzyme at 2.5 uM by atomic force microscopy (reference value: 0.87 nm).
The species named for test [21] is Homo sapiens. In words: Binding affinity to alpha-glucosidase (unknown origin) assessed as enzyme complexation with compound at 2.5 uM by measuring mean width of enzyme by atomic force microscopy (reference value: 28.35 nm).
The species entered for test [22] is Homo sapiens. The experiment in a line: Binding affinity to alpha-glucosidase (unknown origin) assessed as quenching constant at 304 K.
Test [23] is filed under the species Homo sapiens. In words: Binding affinity to alpha-glucosidase (unknown origin) assessed as quenching constant at 310 K.
For test [24], the species on record is Homo sapiens. In words: Binding affinity to alpha-glucosidase (unknown origin) assessed as quenching constant at 298 K.
The species named for test [25] is Homo sapiens. The experiment in a line: Binding affinity to alpha-glucosidase (unknown origin) assessed as decrease in fluorescence intensity of Trp residue without shift in maximum emission wavelength at 0.33-3.22 uM by fluorescence based Synchronous fluorescence spectroscopy. The settings on record: dose microM 0.33-3.22.
For test [26], the species on record is Homo sapiens. In words: Binding affinity to alpha-glucosidase (unknown origin) assessed as decrease in fluorescence intensity of Tyr residue without shift in maximum emission wavelength at 0.33 to 3.22 uM by fluorescence based Synchronous fluorescence spectroscopy. The settings on record: dose microM 0.33-3.22.
The species named for test [27] is Rattus norvegicus. The experiment in a line: Inhibition of alpha-glucosidase in rat everted intestinal sleeves assessed as reduction in blood glucose AUC (0-90) within intestinal sleeves at 0.173 mM. The test is classed as tissue-based. The settings on record: Intestine, time min 0-90.
For test [28], the species on record is Rattus norvegicus. In words: Inhibition of alpha-glucosidase in rat everted intestinal sleeves assessed as reduction in blood glucose AUC (0-90) outside of the intestinal sleeves at 0.173 mM. The test is classed as tissue-based. The settings on record: Intestine, time min 0-90.
For test [29], the species on record is Homo sapiens. The experiment in a line: Binding affinity to alpha-glucosidase (unknown origin) assessed as destabilization of enzyme conformation by measuring induction of protein aggregation at 2.5 uM by atomic force microscopy.
Test [30] is filed under the species Homo sapiens. The experiment in a line: Binding affinity to alpha-glucosidase (unknown origin) assessed as change in the microenvironment of tyrosine and tryptophan residues at 0.33 to 3.32 uM by fluorescence based Synchronous fluorescence spectroscopy. The conditions noted are these: dose microM 0.33-3.32.
Test [31] is filed under the species Rattus norvegicus. The experiment in a line: Inhibition of alpha-glucosidase in rat everted intestinal sleeves assessed as reduction in glucose concentration within intestinal sleeves at 0.5 mM measured for 5 to 90 mins. The test is classed as tissue-based. The conditions noted are these: Intestine, time min 5-90.
The species entered for test [32] is Rattus norvegicus. The experiment in a line: Inhibition of alpha-glucosidase in rat everted intestinal sleeves assessed as reduction in glucose concentration outside of the intestinal sleeves at 0.5 mM measured after 5 to 90 mins. Type of test: tissue-based. The settings on record: Intestine, time min 5-90.
The species entered for test [33] is Rattus norvegicus. In words: Inhibition of alpha-glucosidase in rat everted intestinal sleeves assessed as reduction in blood glucose AUC (0-90) within intestinal sleeves at 0.5 mM. Type of test: tissue-based. The conditions noted are these: Intestine, time min 0-90.
For test [34], the species on record is Rattus norvegicus. The experiment in a line: Inhibition of alpha-glucosidase in rat everted intestinal sleeves assessed as reduction in blood glucose AUC (0-90) outside of the intestinal sleeves at 0.5 mM. The test is classed as tissue-based. The settings on record: Intestine, time min 0-90.

Each structure is given as a SMILES string. The source made the active and inactive calls. The calls are words filed in the database; no cut-off is given here.

As for `CCCCCCCC(=O)c1cc(C)c(OC(=O)CI)cc1O`, the deltaG is -4.23 kcal/mol in the test listed under Homo sapiens [1], -4.29 kcal/mol in the test filed under Homo sapiens [15] and -4.36 kcal/mol in the test listed under Homo sapiens [16]. Moreover, the Ka in the test listed under Homo sapiens [2] was 1.39 10^4L/mol; in the test listed under Homo sapiens [12], 1.34 10^4L/mol; in the test listed under Homo sapiens [13], 1.3 10^4L/mol. Moreover, the inhibition entry in the test listed under Rattus norvegicus [3], in the test filed under Homo sapiens [6], in the test listed under Rattus norvegicus [19], in the test filed under Rattus norvegicus [27] and in the test listed under Rattus norvegicus [28] was “Active” each time. Also, in the test listed under Homo sapiens [4], the deltaS came to 45 J/mol/K. Moreover, the IC50 in test [5] turned out to be 1690 nM. In addition, in [7], the affinity, expressed as Ki, was 1620 nM. Moreover, the result in the test listed under Homo sapiens [8], in the test filed under Mus musculus [18], in the test listed under Homo sapiens [25] and in the test filed under Homo sapiens [29] was Active. Besides, the KSV in the test listed under Homo sapiens [9] is 2.27 10^4L/mol; in the test filed under Homo sapiens [10] it was 1.95 10^4L/mol; in the test filed under Homo sapiens [11] it was 1.64 10^4L/mol. Also, in the test filed under Homo sapiens [14], the deltaH is -1.02 kcal/mol. Moreover, the Activity result was “Dose-dependent effect” in the test listed under Mus musculus [17], 0.75 nm in the test listed under Homo sapiens [20] and 47.5 nm in the test listed under Homo sapiens [21]. Also, the Kq in the test filed under Homo sapiens [22] was 1.95 10^12L/mol/s; in the test listed under Homo sapiens [23], 1.64 10^12L/mol/s; in the test filed under Homo sapiens [24], 2.27 10^12L/mol/s. The outcome in the test listed under Homo sapiens [26] and in the test listed under Homo sapiens [30] was inactive.
For the molecule `C[C@H]1O[C@H](O[C@H]2[C@H](O)[C@@H](O)[C@@H](O[C@H]3[C@H](O)[C@@H](O)C(O)O[C@@H]3CO)O[C@@H]2CO)[C@H](O)[C@@H](O)[C@@H]1N[C@H]1C=C(CO)[C@@H](O)[C@H](O)[C@H]1O` (some centres not stated) [ACARBOSE], the inhibition entry in the test filed under Rattus norvegicus [31], in the test filed under Rattus norvegicus [32], in the test listed under Rattus norvegicus [33] and in the test filed under Rattus norvegicus [34] was “Active” in each case. Besides, in test [5], the IC50 was determined as 57000 nM. In addition, the outcome in the test listed under Mus musculus [17] and in the test listed under Mus musculus [18] was Active.

For orientation: IC50 means the concentration needed to halve the response being measured. Usually Ki stands for a measure of affinity in units of concentration, obtained from inhibition or displacement.

The values are drawn from ChEMBL document CHEMBL4699496, “Exploring efficacy of natural-derived acetylphenol scaffold inhibitors for α-glucosidase: Synthesis, in vitro and in vivo biochemical studies” (Bioorg Med Chem Lett, 2020).
